Measured values reported in patent publication US8765433B2, “Alcohol dehydrogenases (ADH) useful for fermentive production of lower alkyl alcohols” (priority 2009, dated 2014).

Key:
[1] = biological target: T1, Methylocella silvestris BL2 ADH (MsADH), SEQ ID NO: 35 (Methylocella silvestris, UniProt B8ELZ1); assay: isobutyraldehyde reduction kinetics (A340, initial rates); format: biochemical
T1 sequence (B8ELZ1 1-345): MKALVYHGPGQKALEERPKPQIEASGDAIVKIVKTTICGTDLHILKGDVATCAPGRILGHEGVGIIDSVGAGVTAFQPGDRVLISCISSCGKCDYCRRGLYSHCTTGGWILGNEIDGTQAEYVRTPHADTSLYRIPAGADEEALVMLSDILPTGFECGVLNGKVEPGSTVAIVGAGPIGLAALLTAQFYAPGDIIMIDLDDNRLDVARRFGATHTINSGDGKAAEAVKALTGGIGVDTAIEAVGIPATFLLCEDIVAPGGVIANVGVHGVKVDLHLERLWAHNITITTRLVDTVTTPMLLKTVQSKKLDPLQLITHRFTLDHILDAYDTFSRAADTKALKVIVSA
Text: (§1) This example describes preparation of ADH-gene constructs for over-expression/purification and measurement of enzyme activities using a time-course assay. Horse-liver ADH (HLADH; A-6128) was purchased from Sigma. Achromobacter xylosoxidans SadB (SadB), Saccharomyces cerevisiae ADH6 (ScADH6) and ADH7 (ScADH7), Entamoeba histolytica ADH1 (EhADH1), Bos Taurus Aldehyde Reductase (BtARD), Beijerinckia indica subsp. Indica ATCC 9039 (BiADH), Clostridium beijerinckii ADH (CbADH), Rana perezi ADH8 (RpADH8), Rattus norvegicus ADH1 (RnADH1), Thermus sp. ATN1 ADH (TADH), Phenylobacterium zucineum HLK1 ADH (PzADH), Methylocella silvestris BL2 ADH (MsADH), Acinetobacter baumannii AYE ADH (AbADH), Geobacillus sp. WCH70 ADH (GbADH), Vanderwaltozyma polyspora DSM 70294 ADH (VpADH), Mucor circinelloides ADH (McADH), and Rhodococcus erythropolis PR4ADH (ReADH) were the candidates for which subclones were prepared for protein expression and purification.
(§2) As a routine practice, the crude extracts and purified proteins were assayed for butanol oxidation activity, in order to ensure that the recombinant proteins were active throughout the purification process. […] Alcohol oxidation activities were carried out in 50 mM sodium phosphate buffer at pH 8.8 and aldehyde reduction reactions were assayed in 190 mM potassium phosphate buffer at pH 7.0. Depending on the nature of reaction being carried out, the enzyme and cofactor stocks were diluted in the reaction buffers at the respective pHs. Either buffer or cell extract prepared from the proprietary E. coli strain (with no ADH plasmid) was used as the negative control for assays with purified protein and cell-free extracts, respectively.
Kinetic constants of the ADH enzymes were calculated and compared to identify those candidate ADH enzymes with the most desirable properties for the conversion of isobutyraldehyde to isobutanol in the last step of the engineered pathway for isobutanol production. The assays for determining the kinetic constants were carried out using initial rates from the assays described above. […] The concentration of a given enzyme was such that it was conducive for the measurement of initial velocities over a 1-min time course. For each enzyme, Michaelis-Menten plots were generated with a broad range of substrate concentrations. Rough estimates of KM were obtained, based on which the assays were redesigned so as to use substrate concentrations in the range 0.5 to 10 times the KM value, to be able to obtain the appropriate kinetic constants. […] When calculating the KI for isobutanol, the same reactions were carried out in the presence of varying concentrations of isobutanol (generally 0-535 mM) in the reaction (see FIG. 7, for example). Reactions with isobutanol substrate were performed at 30° C. in 50 mM Sodium phosphate buffer, pH 8.8, containing 7.5 mM NAD. The Enzyme kinetics module (Version 1.3) of SigmaPlot 11 (Systat Software, Inc.) was used to fit data to Michaelis-Menten equations and calculate the kinetic constants. The kcat/KM is derived from the individual numbers of kcat and KM and not an experimentally determined value. The ratios of the KM, KI, and kcat/KM for each candidate enzyme as compared to the same parameter for SadB are given in Table 9.
Seven additional candidate ADH enzymes were synthesized, expressed, and assayed according to methods such as described in Example 2. Kinetic constants obtained for the indicated ADH enzymes (Phenylobacterium zucineum HLK1 ADH (PzADH), Methylocella silvestris BL2 ADH (MsADH), Acinetobacter baumannii AYE ADH (AbADH), Geobacillus sp. WCH70 ADH (GbADH), and Mucor circinelloides ADH (McADH)) are given in Table 8. A comparison of KM, KI, and kcat/KM for each candidate enzyme as compared to the same parameter for SadB are given in Table 9 as a percentage of the values determined (Table 7) for SadB. […]

[2] = biological target: T2, Beijerinckia indica subsp. Indica ATCC 9039 ADH (BiADH), SEQ ID NO: 31 (Beijerinckia indica, UniProt B2IGW3); format: biochemical
T2 sequence (B2IGW3 1-347): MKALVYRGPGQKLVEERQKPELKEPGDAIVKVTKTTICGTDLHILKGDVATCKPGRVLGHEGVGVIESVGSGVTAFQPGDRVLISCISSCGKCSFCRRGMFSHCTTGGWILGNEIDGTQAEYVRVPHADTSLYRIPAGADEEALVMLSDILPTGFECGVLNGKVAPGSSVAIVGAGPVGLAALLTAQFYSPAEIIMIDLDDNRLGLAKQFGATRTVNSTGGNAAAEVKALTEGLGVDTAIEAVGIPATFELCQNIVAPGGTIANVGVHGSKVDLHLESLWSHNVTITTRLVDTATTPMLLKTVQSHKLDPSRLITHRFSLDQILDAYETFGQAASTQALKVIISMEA
Text: as §1, §2
Kinetic constants of the ADH enzymes were calculated and compared to identify those candidate ADH enzymes with the most desirable properties for the conversion of isobutyraldehyde to isobutanol in the last step of the engineered pathway for isobutanol production. The assays for determining the kinetic constants were carried out using initial rates from the assays described above. […] The concentration of a given enzyme was such that it was conducive for the measurement of initial velocities over a 1-min time course. For each enzyme, Michaelis-Menten plots were generated with a broad range of substrate concentrations. Rough estimates of KM were obtained, based on which the assays were redesigned so as to use substrate concentrations in the range 0.5 to 10 times the KM value, to be able to obtain the appropriate kinetic constants. […] Reactions with isobutanol substrate were performed at 30° C. in 50 mM Sodium phosphate buffer, pH 8.8, containing 7.5 mM NAD. The Enzyme kinetics module (Version 1.3) of SigmaPlot 11 (Systat Software, Inc.) was used to fit data to Michaelis-Menten equations and calculate the kinetic constants. The kcat/KM is derived from the individual numbers of kcat and KM and not an experimentally determined value.
For those enzymes marked with an asterisk in Table 7, at least 3 assays were performed with separate preparations of the enzyme. All other numbers are values from either one assay or are averages from 2 assays performed with the same enzyme sample.

| SMILES | Ki ([1]; read-out: KI (Isobutanol)) [mM] | KI as a percentage of the same parameter for SadB ([1]; relative to SadB) [%] | KI as a percentage of the same parameter for SadB ([2]; relative to SadB) [%] | KM as a percentage of the same parameter for SadB ([1]; relative to SadB) [%] | kcat as a percentage of the same parameter for SadB ([1]; relative to SadB) [%] | kcat/KM as a percentage of the same parameter for SadB ([1]; relative to SadB) [%] | catalytic efficiency for isobutyraldehyde reduction, BiADH relative to SadB ([2]; compared with SadB) [times] | KM as a percentage of the same parameter for SadB ([2]; relative to SadB) [%] | kcat as a percentage of the same parameter for SadB ([2]; relative to SadB) [%] | kcat/KM as a percentage of the same parameter for SadB ([2]; relative to SadB) [%] |
| --- | --- | --- | --- | --- | --- | --- | --- | --- | --- | --- |
| CC(C)CO [isobutanol, 2-methylpropan-1-ol] | 19 | 11 | 20 | – | – | – | – | – | – | – |
| CC(C)C=O [isobutyraldehyde] | – | – | – | 6 | 30 | 532 | ~12 | 20 | 260 | 1192 |
